From ChEMBL document CHEMBL1201862, “PubChem BioAssay data set” (2004)
Activity calls are given as the source filed them.

Tests used:
[1] = viability of HCT116 lacking mutant beta-catenin – cell-based, human colon tumor, dose response (AID 1045); type: functional;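 note: HCT116 colon tumor cells with beta catenin knocked out; cells exposed to compound for 60 hours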
Mu-type opioid receptor = Mu-type opioid receptor (Homo sapiens, UniProt P35372); type: functional, cell-based;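 note: U2OS cells with beta-arrestin recruitment to OPRM1 by beta-gal complementation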
[2] = target: 5-hydroxytryptamine receptor 1A (Homo sapiens, UniProt P08908); type: functional
[3] = target: 5-hydroxytryptamine receptor 2A (Mus musculus, UniProt P35363); type: functional, cell-based;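 note: CHO-K1 cells with tagged receptor and beta-arrestin; agonist potency measured as compound-induced activation of the receptor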
[4] = viability of PTEN-deleted HCT116 cells – cell-based, HCT116 PTEN knockout, dose response (AID 1047); type: functional;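 note: HCT116 colon tumor cells with PTEN knocked out; cells exposed to compound for 60 hours before readout; potency for loss of cell viability measured by luminescence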
Prothrombin = Prothrombin (Homo sapiens, UniProt P00734); assay: Thrombin 1536 HTS Dose Response Confirmation. [Related pubchem assays: 1046 (Thrombin 1536 HTS; hits were confirmed in this assay)]; type: functional
INS1 = assay: INS-1E survival protection against cytokine death – cell-based, luminescence, retest, dose response (AID 449756); type: functional; settings: Rattus norvegicus;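 note: cell death triggered by IL-1 beta plus TNF-alpha plus IFN-gamma mixture; protective hits raise ATP signal compared with cytokine alone wells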
[5] = target: T1, Sphingosine 1-phosphate receptor 4 (Homo sapiens, UniProt O95977); assay: Late stage fluorescence dose response cell-based screening assay for antagonists of the Sphingosine 1-Phosphate Receptor 4 (S1P4). [Related pubchem assays: 1524 (Confirmation screen (S1P4 antagonists).), 1510 (Primary screen (S1P4 antagonists).), 1853 (Summary AID (S1P4 antagonists).), 1692 (Dose response screen (S1P4 antagonists).)]; type: functional
T1 sequence (O95977 whole entry): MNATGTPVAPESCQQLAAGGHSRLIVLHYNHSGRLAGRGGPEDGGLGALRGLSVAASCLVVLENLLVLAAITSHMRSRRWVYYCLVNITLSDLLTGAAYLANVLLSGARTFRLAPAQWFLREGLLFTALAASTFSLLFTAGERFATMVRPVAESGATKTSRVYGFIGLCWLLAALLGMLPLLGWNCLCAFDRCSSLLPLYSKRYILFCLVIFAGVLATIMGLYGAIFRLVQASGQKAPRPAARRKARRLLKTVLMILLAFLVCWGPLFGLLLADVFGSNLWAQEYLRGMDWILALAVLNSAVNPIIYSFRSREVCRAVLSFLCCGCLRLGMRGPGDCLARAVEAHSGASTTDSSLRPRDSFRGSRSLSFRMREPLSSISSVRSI

[6] = loss of viability in HepG2 cells – cell-based, CellTiter-Glo, cherry-picked, cytotoxicity control for Shn3 inhibitor project, dose response (AID 624134); type: functional
Fatty acid synthase [7] = target: T2, Fatty acid synthase (Homo sapiens, UniProt P49327); assay: inhibition of human FAS-TE enzyme activity – biochemical, kinetic fluorescence intensity, dose response (AID 624326); type: functional;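 note: rate of fluorescence rise from hydrolysis of a fluorogenic O-methyl fluorescein ester substrate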
[8] = target: T1, Sphingosine 1-phosphate receptor 4; assay: Fluorescence dose response cell-based high throughput screening assay for antagonists of the Sphingosine 1-Phosphate Receptor 4 (S1P4). [Related pubchem assays: 1524 (Confirmation in triplicates.), 1510 (Primary screen.)]; type: functional
[9] = non-specific 3'UTR reporter inhibition in Clone20-Shn3RL – cell-based, Renilla luciferase, cherry-picked, counter-screen for Shn3 inhibitor project, dose response (AID 624133); type: functional
Fatty acid synthase [10] = target: T2, Fatty acid synthase; assay: inhibition of human FAS-TE enzyme activity – biochemical, endpoint fluorescence intensity, uHTS hits, dose response (AID 624327); type: functional;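 note: fluorescence from hydrolysis of an O-methyl fluorescein acyl ester substrate by the enzyme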
[11] = target: T3, Replicative DNA helicase DnaB (Mycobacterium tuberculosis, UniProt P9WMR3); assay: DnaB intein splicing inhibitors, dose response, biochemical, cell-free fluorescence (AID 449749); type: functional
T3 sequence (P9WMR3 whole entry): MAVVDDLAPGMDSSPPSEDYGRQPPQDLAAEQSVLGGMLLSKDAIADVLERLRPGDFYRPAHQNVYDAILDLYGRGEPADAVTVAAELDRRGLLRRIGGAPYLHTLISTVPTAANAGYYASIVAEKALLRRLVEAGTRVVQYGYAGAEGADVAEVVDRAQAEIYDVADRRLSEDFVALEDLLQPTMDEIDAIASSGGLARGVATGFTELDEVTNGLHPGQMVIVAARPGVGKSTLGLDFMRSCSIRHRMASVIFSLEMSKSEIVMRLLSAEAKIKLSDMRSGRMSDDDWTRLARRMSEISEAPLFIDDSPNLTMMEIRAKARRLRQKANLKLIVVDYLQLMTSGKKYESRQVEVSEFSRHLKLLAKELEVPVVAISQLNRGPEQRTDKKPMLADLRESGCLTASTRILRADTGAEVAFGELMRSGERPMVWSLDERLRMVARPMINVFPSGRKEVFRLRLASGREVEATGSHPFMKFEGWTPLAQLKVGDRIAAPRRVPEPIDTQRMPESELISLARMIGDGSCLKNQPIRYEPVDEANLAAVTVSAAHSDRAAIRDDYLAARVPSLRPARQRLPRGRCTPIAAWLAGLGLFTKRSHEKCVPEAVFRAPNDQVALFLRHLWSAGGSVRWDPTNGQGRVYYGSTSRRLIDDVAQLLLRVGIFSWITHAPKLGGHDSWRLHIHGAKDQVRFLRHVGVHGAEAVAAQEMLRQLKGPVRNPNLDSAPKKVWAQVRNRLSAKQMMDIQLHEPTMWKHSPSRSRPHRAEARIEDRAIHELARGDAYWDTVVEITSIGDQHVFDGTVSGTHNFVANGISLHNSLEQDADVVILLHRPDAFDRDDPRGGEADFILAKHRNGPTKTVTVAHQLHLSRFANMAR

Protein RecA = target: T4, Protein RecA (Mycobacterium tuberculosis, UniProt P9WHJ3); assay: Fluorescence Cell-Free Homogeneous Dose Retest to Identify Inhibitors of RecA-Intein Splicing Activity. [Related pubchem assays (depositor defined):AID2097, AID2223, AID489010, AID492950]; type: functional
T4 sequence (P9WHJ3 whole entry): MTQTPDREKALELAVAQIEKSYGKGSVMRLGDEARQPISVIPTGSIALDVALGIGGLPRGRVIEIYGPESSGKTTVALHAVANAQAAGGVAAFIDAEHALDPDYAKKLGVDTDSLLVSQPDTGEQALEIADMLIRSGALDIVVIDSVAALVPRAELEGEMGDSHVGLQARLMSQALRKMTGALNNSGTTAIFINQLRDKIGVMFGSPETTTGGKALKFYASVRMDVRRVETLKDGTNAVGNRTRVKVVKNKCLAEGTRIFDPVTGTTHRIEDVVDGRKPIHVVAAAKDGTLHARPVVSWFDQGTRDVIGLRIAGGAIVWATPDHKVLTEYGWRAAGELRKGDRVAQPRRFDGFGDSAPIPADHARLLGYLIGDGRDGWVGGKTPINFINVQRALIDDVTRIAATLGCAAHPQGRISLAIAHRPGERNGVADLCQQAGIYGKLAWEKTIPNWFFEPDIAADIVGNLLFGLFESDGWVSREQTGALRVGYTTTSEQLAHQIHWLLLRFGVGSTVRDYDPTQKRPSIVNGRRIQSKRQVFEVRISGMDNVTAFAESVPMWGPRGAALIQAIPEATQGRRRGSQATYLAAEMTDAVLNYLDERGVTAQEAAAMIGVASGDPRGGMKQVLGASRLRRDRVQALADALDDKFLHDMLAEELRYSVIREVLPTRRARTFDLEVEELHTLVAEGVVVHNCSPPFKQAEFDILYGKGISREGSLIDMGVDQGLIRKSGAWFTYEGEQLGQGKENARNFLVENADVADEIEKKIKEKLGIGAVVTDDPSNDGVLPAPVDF

[12] = reduction of Shn3 3'UTR-driven luciferase in osteoblasts – cell-based, Clone20 osteoblasts, firefly luciferase, cherry-picked, dose response (AID 624132); type: functional;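 note: firefly luciferase luminescence from reporter carrying the Shn3 3'UTR in osteoblasts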
[13] = target: Sphingosine 1-phosphate receptor 1 (Homo sapiens, UniProt P21453); type: functional;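 note: Tango beta-arrestin reporter U2OS cells stimulated with S1P near its EC80; inhibitor potency meaning antagonism of receptor activation by the natural agonist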
[14] = Luminescent dose response cell-based high throughput screening assay for inhibitors of the Janus kinase 2 mutant JAK2V617F. [Related pubchem assays: 1446 (Primary screen.), 1521 (Confirmation assay.), 1486 (Counter screen.)]; type: functional
[15] = target: Heat shock protein HSP 90-alpha (Homo sapiens, UniProt P07900); type: functional, organism-based
[16] = NIH3T3 cell viability loss – ATP luminescence, mouse fibroblasts, counter-screen, dose response (AID 2010); type: functional, cell-based;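 note: cells exposed to compound for about 90 hours before reading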
[17] = luciferase reporter signal suppression in cells – H4 neuroglioma cells, luminescence, dose response (AID 1990); type: functional, cell-based
[18] = Luminescence Cell-Based Dose Retest to Confirm Inhibitors of Cancer Stem Cells. [Related pubchem assays (depositor defined):AID2717, AID2721]; type: functional; settings: Homo sapiens
[19] = Luminescence Cell-Based Dose Response HTS to Identify Inhibitors of 5'UTR Stem-Loop Driven Prion Protein mRNA Translation in H4 Neuroglioblastoma Cells. [Related pubchem assays: 1827 (Project Summary), 1813 (Primary HTS)]; type: functional
[20] = alpha-synuclein stem-loop luciferase translation blockers – H4 neuroglioma cells, luminescence, confirmation (AID 1988); type: functional, cell-based
[21] = HPDE-C7 pancreatic duct cell viability loss – fluorescence, HTS (AID 430); type: functional, cell-based; settings: Homo sapiens
[22] = Trypanosoma cruzi growth suppression in host cells – NIH3T3 host cells, beta-gal luminescence, confirmation (AID 2044); type: functional, cell-based;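 note: intracellular parasites grown in NIH/3T3 mouse fibroblasts as host cells; luminescent beta-galactosidase reporter signal from transgenic T. cruzi replicating inside host cells; inhibitors lower the luminescence signal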
[23] = viability loss of HPDE-C7K cells – cell-based, fluorescence, HTS, primary screen (AID 431); type: functional; settings: Homo sapiens
[24] = Luminescence Cell-Based Dose Confirmation HTS to Identify Inhibitors of Platelet Dense Granule Release. [Related pubchem assays: 1663 (Primary HTS), 1678 (Summary of Project)]; type: functional
[25] = target: Luciferin 4-monooxygenase (Photinus pyralis, UniProt P08659); assay: inhibition of purified Photinus pyralis luciferase – biochemical, luminescence, dose response (AID 1891)
[26] = microbe, parasite or virus in culture; type: functional; settings: Mycobacterium tuberculosis
[27] = MIN6 cell viability loss – mouse insulinoma, cytotoxicity control, dose response (AID 2122); type: functional;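 note: confirmatory high-throughput counterscreen run to flag cytotoxic compounds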
[28] = decrease of insulin promoter-GFP reporter – imaging, high-content screening, mouse beta cells (AID 1628); type: functional; settings: MIN6
[29] = Luminescence-based dose response cell-based high throughput screening assay for cytotoxic compounds using the IEC-6 intestinal epithelial cell line. [Related pubchem assays: 1858 (Summary AID.), 1825 (Counterscreen.), 1907 (Confirmation screen.)]; type: functional
[30] = target: DNA repair and recombination protein RAD54-like (Homo sapiens, UniProt Q92698); assay: RAD54 Holliday junction migration blockers – biochemical, fluorescence, cherry-picked samples, dose series, confirmation (AID 651657); type: functional
[31] = target: DNA dC->dU-editing enzyme APOBEC-3A (Homo sapiens, UniProt P31941); assay: A3A deaminase inhibition for selectivity – biochemical, dose response (AID 504722); type: functional
Bcl-2-like protein 1 = Bcl-2-like protein 1 (Homo sapiens, UniProt Q07817); assay: blockers of BCLXL peptide binding – biochemical, fluorescence polarization, 1536-well, selectivity assay for MCL1 inhibitor project, dose response (AID 2218)
[32] = target: Induced myeloid leukemia cell differentiation protein Mcl-1 (Homo sapiens, UniProt Q07820); assay: blockers of MCL1 binding to BIM peptide – biochemical, fluorescence polarization, BIM-BH3 peptide, 1536-well, dose response (AID 2217)
[33] = target: DNA dC->dU-editing enzyme APOBEC-3G (Homo sapiens, UniProt Q9HC16); assay: Dose Response confirmation of small molecule APOBEC3G DNA Deaminase Inhibitors via a fluorescence-based single-stranded DNA deaminase assay. [Related pubchem assays (depositor defined):AID493012, AID493028]; type: functional

T2 sequence (P49327 whole entry): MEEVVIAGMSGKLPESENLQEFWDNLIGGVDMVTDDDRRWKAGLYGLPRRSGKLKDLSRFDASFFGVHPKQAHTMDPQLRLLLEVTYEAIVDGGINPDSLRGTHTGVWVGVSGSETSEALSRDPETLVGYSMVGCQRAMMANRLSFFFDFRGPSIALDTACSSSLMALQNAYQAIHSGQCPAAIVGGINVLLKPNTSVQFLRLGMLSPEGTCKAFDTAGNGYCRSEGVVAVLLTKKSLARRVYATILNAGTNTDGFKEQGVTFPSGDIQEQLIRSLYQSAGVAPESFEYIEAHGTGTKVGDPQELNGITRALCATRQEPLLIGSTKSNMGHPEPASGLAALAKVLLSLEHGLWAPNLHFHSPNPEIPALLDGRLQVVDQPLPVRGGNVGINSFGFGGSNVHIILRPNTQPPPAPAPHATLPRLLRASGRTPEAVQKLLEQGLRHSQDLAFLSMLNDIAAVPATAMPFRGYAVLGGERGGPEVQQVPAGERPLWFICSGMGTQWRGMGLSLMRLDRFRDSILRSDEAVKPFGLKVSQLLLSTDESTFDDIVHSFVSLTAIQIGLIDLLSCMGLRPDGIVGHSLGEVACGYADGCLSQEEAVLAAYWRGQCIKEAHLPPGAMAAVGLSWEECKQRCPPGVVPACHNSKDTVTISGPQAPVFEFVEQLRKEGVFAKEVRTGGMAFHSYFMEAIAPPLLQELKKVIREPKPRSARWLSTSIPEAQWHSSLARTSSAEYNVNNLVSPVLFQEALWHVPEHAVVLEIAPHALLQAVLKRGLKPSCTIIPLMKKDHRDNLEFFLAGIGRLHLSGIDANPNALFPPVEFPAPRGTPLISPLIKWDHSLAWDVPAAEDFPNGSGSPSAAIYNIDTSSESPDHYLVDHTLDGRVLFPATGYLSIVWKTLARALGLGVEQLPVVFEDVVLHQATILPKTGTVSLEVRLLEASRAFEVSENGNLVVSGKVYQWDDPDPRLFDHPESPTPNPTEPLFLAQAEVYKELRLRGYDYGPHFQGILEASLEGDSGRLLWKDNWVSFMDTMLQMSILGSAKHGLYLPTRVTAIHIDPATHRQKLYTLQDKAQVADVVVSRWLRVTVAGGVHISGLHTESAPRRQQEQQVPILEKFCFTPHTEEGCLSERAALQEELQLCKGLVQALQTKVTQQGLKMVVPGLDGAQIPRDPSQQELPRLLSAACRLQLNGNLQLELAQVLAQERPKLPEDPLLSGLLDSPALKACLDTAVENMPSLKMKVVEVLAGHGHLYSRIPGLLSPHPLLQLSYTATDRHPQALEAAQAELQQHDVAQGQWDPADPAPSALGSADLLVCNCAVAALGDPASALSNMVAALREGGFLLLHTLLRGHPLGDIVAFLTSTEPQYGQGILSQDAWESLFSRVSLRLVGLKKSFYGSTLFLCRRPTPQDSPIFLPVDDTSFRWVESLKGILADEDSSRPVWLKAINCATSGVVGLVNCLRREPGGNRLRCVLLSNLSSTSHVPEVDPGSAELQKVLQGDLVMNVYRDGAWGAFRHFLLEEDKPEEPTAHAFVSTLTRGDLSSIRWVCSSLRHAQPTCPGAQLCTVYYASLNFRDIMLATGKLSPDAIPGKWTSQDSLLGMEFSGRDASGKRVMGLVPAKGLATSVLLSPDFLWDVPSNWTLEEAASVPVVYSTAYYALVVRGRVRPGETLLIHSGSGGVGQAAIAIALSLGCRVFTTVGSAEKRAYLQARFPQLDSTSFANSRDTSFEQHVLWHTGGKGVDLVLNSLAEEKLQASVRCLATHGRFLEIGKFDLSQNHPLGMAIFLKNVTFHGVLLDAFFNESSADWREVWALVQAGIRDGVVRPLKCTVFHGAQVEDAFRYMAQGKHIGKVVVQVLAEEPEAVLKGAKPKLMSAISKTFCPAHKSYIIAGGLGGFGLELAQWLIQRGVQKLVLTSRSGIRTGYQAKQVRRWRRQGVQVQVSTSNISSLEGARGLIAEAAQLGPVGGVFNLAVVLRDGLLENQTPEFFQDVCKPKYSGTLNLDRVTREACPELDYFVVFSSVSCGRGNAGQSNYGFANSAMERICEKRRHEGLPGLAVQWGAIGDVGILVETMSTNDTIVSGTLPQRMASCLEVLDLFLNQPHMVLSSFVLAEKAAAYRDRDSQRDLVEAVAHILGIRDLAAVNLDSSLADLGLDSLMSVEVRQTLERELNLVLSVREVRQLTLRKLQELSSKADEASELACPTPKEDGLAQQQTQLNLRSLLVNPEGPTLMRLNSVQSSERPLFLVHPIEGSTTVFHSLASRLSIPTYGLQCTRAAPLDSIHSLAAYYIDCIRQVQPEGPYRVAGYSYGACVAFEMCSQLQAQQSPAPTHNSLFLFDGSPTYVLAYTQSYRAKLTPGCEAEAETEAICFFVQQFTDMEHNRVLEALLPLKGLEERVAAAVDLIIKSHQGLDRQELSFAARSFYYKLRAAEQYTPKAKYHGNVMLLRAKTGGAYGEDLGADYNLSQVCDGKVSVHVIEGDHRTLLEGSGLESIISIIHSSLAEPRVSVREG
Sequence of 5-hydroxytryptamine receptor 1A (P08908 whole entry): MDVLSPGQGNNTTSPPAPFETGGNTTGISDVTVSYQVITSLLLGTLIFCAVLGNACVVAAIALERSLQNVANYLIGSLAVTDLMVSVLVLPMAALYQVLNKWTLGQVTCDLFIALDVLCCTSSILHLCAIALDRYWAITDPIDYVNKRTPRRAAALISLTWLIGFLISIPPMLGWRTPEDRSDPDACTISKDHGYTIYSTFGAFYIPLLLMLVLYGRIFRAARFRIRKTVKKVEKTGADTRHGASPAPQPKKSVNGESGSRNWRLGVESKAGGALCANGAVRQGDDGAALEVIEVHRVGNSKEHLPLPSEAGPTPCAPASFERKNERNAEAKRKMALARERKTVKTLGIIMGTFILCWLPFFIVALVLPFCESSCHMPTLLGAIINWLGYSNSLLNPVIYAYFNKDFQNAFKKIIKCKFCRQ
Sequence of Induced myeloid leukemia cell differentiation protein Mcl-1 (Q07820 whole entry): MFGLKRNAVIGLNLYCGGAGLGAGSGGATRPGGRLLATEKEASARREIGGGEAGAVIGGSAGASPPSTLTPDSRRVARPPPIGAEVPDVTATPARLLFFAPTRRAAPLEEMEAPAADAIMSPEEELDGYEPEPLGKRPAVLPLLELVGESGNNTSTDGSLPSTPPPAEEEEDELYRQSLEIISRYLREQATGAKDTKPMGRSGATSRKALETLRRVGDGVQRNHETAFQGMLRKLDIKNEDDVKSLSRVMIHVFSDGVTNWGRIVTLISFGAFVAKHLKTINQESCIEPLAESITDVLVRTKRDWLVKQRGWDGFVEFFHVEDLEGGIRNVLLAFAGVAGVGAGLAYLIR
Sequence of 5-hydroxytryptamine receptor 2A (P35363 whole entry): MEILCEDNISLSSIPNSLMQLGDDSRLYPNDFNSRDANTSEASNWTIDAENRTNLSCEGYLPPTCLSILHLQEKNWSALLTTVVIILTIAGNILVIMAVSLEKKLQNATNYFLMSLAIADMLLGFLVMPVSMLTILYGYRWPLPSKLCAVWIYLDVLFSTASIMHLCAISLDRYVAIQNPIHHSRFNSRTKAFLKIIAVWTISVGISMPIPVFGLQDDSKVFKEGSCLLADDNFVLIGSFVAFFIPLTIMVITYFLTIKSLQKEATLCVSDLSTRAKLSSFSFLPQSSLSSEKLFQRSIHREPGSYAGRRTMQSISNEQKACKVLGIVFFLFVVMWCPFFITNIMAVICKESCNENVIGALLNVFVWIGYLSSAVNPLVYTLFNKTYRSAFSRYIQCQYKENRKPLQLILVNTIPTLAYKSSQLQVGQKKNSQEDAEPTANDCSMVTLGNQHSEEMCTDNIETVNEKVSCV
Sequence of Sphingosine 1-phosphate receptor 1 (P21453 whole entry): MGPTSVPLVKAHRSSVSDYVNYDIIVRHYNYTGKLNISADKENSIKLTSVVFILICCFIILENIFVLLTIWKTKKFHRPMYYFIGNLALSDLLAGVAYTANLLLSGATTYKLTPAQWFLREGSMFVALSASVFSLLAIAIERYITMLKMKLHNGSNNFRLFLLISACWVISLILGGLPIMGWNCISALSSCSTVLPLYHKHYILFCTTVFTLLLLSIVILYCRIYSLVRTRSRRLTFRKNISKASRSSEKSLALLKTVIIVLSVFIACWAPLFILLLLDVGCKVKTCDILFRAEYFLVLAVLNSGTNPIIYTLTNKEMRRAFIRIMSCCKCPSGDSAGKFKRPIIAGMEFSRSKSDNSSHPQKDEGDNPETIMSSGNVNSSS
Sequence of Luciferin 4-monooxygenase (P08659 whole entry): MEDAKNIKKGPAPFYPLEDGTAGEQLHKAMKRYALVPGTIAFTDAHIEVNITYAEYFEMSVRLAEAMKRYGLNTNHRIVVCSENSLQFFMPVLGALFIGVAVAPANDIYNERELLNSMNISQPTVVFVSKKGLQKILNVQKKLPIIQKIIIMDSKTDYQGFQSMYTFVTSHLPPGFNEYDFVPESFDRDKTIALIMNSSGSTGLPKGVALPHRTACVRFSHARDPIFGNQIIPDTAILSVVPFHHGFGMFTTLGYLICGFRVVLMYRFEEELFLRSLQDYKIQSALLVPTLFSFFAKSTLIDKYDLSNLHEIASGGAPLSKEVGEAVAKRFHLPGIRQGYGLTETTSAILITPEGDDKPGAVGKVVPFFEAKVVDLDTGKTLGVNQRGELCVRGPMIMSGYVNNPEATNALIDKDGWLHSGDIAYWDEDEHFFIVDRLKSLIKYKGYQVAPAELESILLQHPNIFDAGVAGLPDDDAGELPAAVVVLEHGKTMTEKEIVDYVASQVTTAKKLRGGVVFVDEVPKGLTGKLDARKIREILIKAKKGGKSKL
Sequence of DNA dC->dU-editing enzyme APOBEC-3A (P31941 whole entry): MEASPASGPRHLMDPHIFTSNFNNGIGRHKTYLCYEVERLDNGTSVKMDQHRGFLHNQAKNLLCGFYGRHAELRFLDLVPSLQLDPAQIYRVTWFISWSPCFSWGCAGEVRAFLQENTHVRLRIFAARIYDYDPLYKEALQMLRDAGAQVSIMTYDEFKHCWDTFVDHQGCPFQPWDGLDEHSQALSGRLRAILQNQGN

CCCCc1ccc2[nH]cc(CCN)c2c1
EC50 [1]: 12.6 µM (active)
EC50 (Mu-type opioid receptor): 92.5 µM (inactive)
EC50 [2]: 1.81 µM (active)
EC50 [3]: 13.3 µM (inactive)
EC50 [4]: 10.6 µM (active)

COC(=O)c1c(C)nn(-c2ccccc2)c1-n1cccc1
IC50 (Prothrombin): > 50 µM (not active)

COc1ccc(NC(=NC(C)=O)Nc2nc(C)cc(C)n2)cc1OC
IC50 (Prothrombin): 2.95 µM (active)

Cc1ccccc1CS(=O)(=O)c1nnc([C@H](Cc2ccccc2)NC(=O)OC(C)(C)C)o1
AC50 (INS1): 8.99 µM (active)
IC50 [5]: 3.49 µM (not active)
AC50 [6]: > 70 µM (inactive)
IC50 (Fatty acid synthase [7]): 8.22 µM (active)
IC50 [8]: 1.69 µM (active)
AC50 [9]: 8.32 µM (active)
IC50 (Fatty acid synthase [10]): 6.74 µM (active)
AC50 [11]: 3.51 µM (active)
EC50 (Protein RecA): 8.54 µM (active)
AC50 [12]: 1.23 µM (active)
IC50 [13]: > 49.8 µM (not active)
IC50 [14]: 0.695 µM (active)
AC50 [15]: 24.1 µM (active)

CCCc1cc(-c2nc(N)ncc2-c2ccc3c(c2)OCCCO3)c(O)cc1OC
EC50 [16]: 21 µM (active)
EC50 [17]: 14.7 µM (active)
AC50 [18]: 3.81 µM (active)
EC50 [19]: > 120 µM (not active)
EC50 [20]: > 120 µM (not active)
EC50 [21]: 6.37 µM (active)
EC50 [22]: 0.884 µM (active)
EC50 [23]: 5.93 µM (active)
EC50 [24]: > 112 µM (not active)
EC50 [25]: > 112 µM (not active)
CC50 [26]: > 40 µM (active)

OC1=C2C(=Nc3cc4c(cc3C2c2ccc(F)cc2)OCO4)CO1 (configuration not stated)
IC50 [27]: < 0.25 µM (active)
IC50 [28]: 1.32 µM (active)
IC50 [29]: 0.112 µM (active)

c1ccc2c(c1)oc1c(Nc3ccc(CN4CCOCC4)cc3)ncnc12
AC50 [30]: 65.5 µM (active)
EC50 [21]: 12.8 µM (active)
EC50 [23]: 15.2 µM (active)

C=CCn1c(S)nnc1CSc1ccccc1[N+](=O)[O-]
IC50 [31]: 38.9 µM (active)
IC50 (Bcl-2-like protein 1): > 109 µM (not active)
IC50 [32]: 29.6 µM (not active)
IC50 [33]: 2.24 µM (active)

COc1ccc(CN2CCN(c3ccccc3F)CC2)c(OC)c1
EC50 [2]: > 50 µM (not active)
